Measurements published in PubChem BioAssay AID1117349.
The source made the active and inactive calls. The rule behind the calls is not given here.

Each molecule was assayed on HeLa cells, increased 2N DNA content (cell cycle) (assay: rise of 2N DNA cells, HeLa – IC50, dose response (AID 1117349)).

| SMILES | IC50 |
| --- | --- |
| C[n+]1c2cc(N)ccc2cc2ccc(N)cc21 (tested in a mixture with another compound) | 3.39 µM |
| Cc1ccc([N+](=O)[O-])[c]2c1[O][Hg]2 | > 10 µM (inactive) |
| CCCCCCCCCCCC(=O)[O][Sn]([CH2]CCC)([CH2]CCC)[O]C(=O)CCCCCCCCCCC | > 10 µM (inactive) |
| CCCCCCCCCCCCCC[N+](C)(C)C | > 10 µM (inactive) |
